Source: patent US7273884B2, “Method of treating tremors” (Eisai, Inc., priority 2002, dated 2007)
Read-outs that look alike come from different tables or passages of the source.

Columns and labels:
[1] = delivered intraperitoneally; severity dose dependent; cited from earlier work
[2] = Harmaline-induced tremor in rats (tremor monitoring cage, 8-12 Hz vs 0-15 Hz motion); assay type: in vivo, Sprague-Dawley rats
Method: Six female Sprague-Dawley rats were treated with i.p. saline and placed in a tremor monitoring cage for 30 minutes of baseline recording. They then received 10 mg/kg harmaline i.p. to induce tremor. Recording of the harmaline-induced tremor began 15 minutes after the harmaline injection and continued for up to 2½ hours.
A transducer connected to the cage floor recorded motion, which was processed by Fourier transform and spectral analysis. Motion at 8-12 Hz (the range in which the tremor occurs) was compared to the full spectrum of motion recorded (0-15 Hz).
To analyze the reduction of tremor caused by treatment agents, a Convuls-1 pressure sensitive transducer system is used. Convuls-1 is designed to objectively quantify convulsive or tremorous activity in small laboratory animals. An unrestrained animal is placed within a chamber that resides upon a sensing platform. […] The static force exerted by the weight of the platform and animal is not recorded. […] Output power is recorded digitally and analyzed for change of frequency and power using the Dataware A/D converted and software.
The data is analyzed in one minute bins. For each bin, the total power of 0-15 Hz and the total power at 8-12 Hz is calculated. The data is then converted into Excel and the ratio of 8-12 Hz/0-15 Hz power is calculated. […]

[3] = general clinical practice, first line therapy; cited from earlier work
NMDA receptor = details: noncompetitive NMDA channel blocker; cited from earlier work
[4] = cats, electrical stimulation of the visual cortex; cited from earlier work
[5] = one patient; treatment with zonisamide, clonazepam and valpolate; cited from earlier work
[6] = cats, cortical freezing; cited from earlier work
rat hippocampal slices = details: 10-30 μg/mL; cited from earlier work
[7] = patients; cited from earlier work
[8] = 50-200 mg/day in addition to anti-Parkinson Disease drug; cited from earlier work
[9] = kindled rat; cited from earlier work
[10] = Zonisamide treatment of tremor patients at an outpatient neurology clinic; assay type: in vivo, human
Method: Zonisamide was used in treatment of patients at an outpatient neurology clinic, which provided the following results. […] For intractable essential tremor, 10 patients (age range: 46 to 82) were identified who were either intolerant to, or failed on, primidone or propranolol therapy. The dosage of zonisamide to these patients was 100 mg to a maximum of 200 mg once daily. The study dose was continued for at least 12 weeks unless discontinued earlier due to side effects.

[11] = tested on: GABA/benzodiazepine receptor ionophore complex; details: in vitro; does not produce changes in chloride flux; cited from earlier work
T-type Ca2+ currents = details: in vitro; cited from earlier work
[12] = tested on: dopaminergic and serotonergic neurotransmission; details: in vivo microdialysis; cited from earlier work
[13] = tested on: cultured mouse spinal cord neurons; details: 10-30 μg/mL; cited from earlier work
[14] = tested on: voltage-gated sodium channels; details: in vitro; cited from earlier work
[15] = rats, cortical tungstic acid gel; cited from earlier work
[16] = rats; cited from earlier work
[17] = patients at outpatient neurology clinic

## COc1ccc2c3c([nH]c2c1)C(C)=NCC3 [harmaline]
[1]
  effective dose range for tremor induction: 10 to 50 mg/kg
[2]; 10 mg/kg harmaline i.p., female Sprague-Dawley rats
  stability of tremor-inducing effect: stable for over two hours
[2]; harmaline-treated rats (control rats 15-30%)
  ratio of 8-12 Hz/0-15 Hz power: 60-80%

## CC(C)NCC(O)COc1cccc2ccccc12 (stereo not drawn) [propranolol]
[3]
  efficacy in ET: proven efficacy in ET

## C[C@]12N[C@H](Cc3ccccc31)c1ccccc12 [MK-801]
NMDA receptor
  tremorogenic actions of harmaline: could block the tremorogenic actions of harmaline

## NS(=O)(=O)Cc1noc2ccccc12 [zonisamide, 1,2-benzisoxazole-3-methanesulfonamide]
[4]
  duration of cortical focal seizures: reduction in the duration of cortical focal seizures
[5]
  symptoms of cortical myoclonic tremor: improved
[6]
  interictal spikes and secondarily generalized seizures: suppressed both interictal spikes and the secondarily generalized seizures
Rat hippocampal slices
  neuronal or glial uptake of [3H]-GABA: without affecting
[7]
  tremor developed after administration: two patients developed resting and postural hand tremor
[8]
  symptoms of patients: showed lessening of symptoms
[9]
  threshold for generalized seizures: increase in threshold for generalized seizures
[10]; Parkinsonian tremor
  patients responding: two out of four responded
[10]; intractable essential tremor responders, 100 mg to 200 mg once daily
  quality of life: reported a better quality of life
[10]; intractable essential tremor, 10 patients intolerant to or failed on primidone or propranolol, 100 mg to 200 mg once daily, at least 12 weeks
  patients responding by reduction in tremor: four patients responded by reduction in tremor of greater than 50%
[10]; mixed tremor (non-essential, secondary to trauma or multiple sclerosis)
  patients responding: two out of two patients responded
[10]; multi-infarct-related (2 or more minor strokes) tremor
  patients responding: one out of two patients responded
[10]; [17]
  adverse reactions experienced in treatment: GI upset, somnolence and skin rash
  kidney stones and anhydrosis (lack of sweating): not encountered
[11]
  binding to GABA/benzodiazepine receptor ionophore complex: binds to the GABA/benzodiazepine receptor ionophore complex in an allosteric fashion
T-type Ca2+ currents
  effect on voltage-dependent, transient inward calcium currents: reduces voltage-dependent, transient inward calcium currents
[12]
  dopaminergic and serotonergic neurotransmission: facilitates both dopaminergic and serotonergic neurotransmission
[13]
  postsynaptic GABA or glutamate responses: without affecting
  synaptically-driven electrical activity: suppresses synaptically-driven electrical activity
[14]
  effect on voltage-gated sodium channels: blocks voltage-gated sodium channels
[15]
  interictal spikes and secondarily generalized seizures: suppressed both interictal spikes and the secondarily generalized seizures
[16]
  oral dose effective in anticonvulsant models: 20 mg/kg
